According to US20240174690A1, “ANNULATED 2-AMINO-3-CYANO THIOPHENES AND DERIVATIVES FOR THE TREATMENT OF CANCER” (BOEHRINGER INGELHEIM INTERNATIONAL GMBH, priority 2021, published 2024):

Legend:
LOVO cells = experiment: LOVO CTG proliferation assay (120 h) (CRC, G13D); format: cell-based; conditions: CTG 120 h
In short: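 LOVO cells, 1000 per well in DMEM + 10% FCS, were plated overnight and then dosed with compound from DMSO stock. After 120 h at 37 °C, viability was read by CellTiter-Glo luminescence as a percentage of DMSO controls. IC50 was derived by four-parameter non-linear regression.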

[1] = test system: KRAS G12C-dependent Ba/F3 cells; experiment: Ba/F3 proliferation assay, KRAS G12C; format: cell-based; conditions: AlamarBlue
In short: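 Viability is measured as AlamarBlue fluorescence in Ba/F3 cells that depend on a transduced mutant KRAS isoform for growth without IL-3. Each treatment is run in technical duplicate, and dose-response curves are fitted.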

SMILES: COc1c(O[C@@H](C)[C@@H]2CCCN2C)nc(-c2noc3c2CCC[C@@]32CCCc3sc(N)c(C#N)c32)nc1-n1ccc(C(N)=O)n1 [II-159]
- IC50 (LOVO cells; Homo sapiens): 356 nM
- IC50 ([1]; Mus musculus, BaF3, 72 h): 147 nM

SMILES: CO[C@@H]1C[C@@H]([C@H](C)Oc2cc(N3CCNC4(CC4)C3)nc(-c3noc4c3CCC[C@@]43CCCc4sc(N)c(C#N)c43)n2)N(C)C1 [II-187]
- IC50 (LOVO cells; Homo sapiens): 429 nM
- IC50 ([1]; Mus musculus, BaF3, 72 h): 133 nM

SMILES: C[C@H](Oc1cc(-n2cc3c(n2)CNC3)nc(-c2noc3c2CCC[C@@]32CCCc3sc(N)c(C#N)c32)n1)[C@@H]1C[C@@H](F)CN1C [II-154]
- IC50 (LOVO cells; Homo sapiens): 904 nM
- IC50 ([1]; Mus musculus, BaF3, 72 h): 245 nM

SMILES: C[C@H](Oc1cc(-n2ccc(C(=O)N[C@H]3CCOC3)n2)nc(-c2noc3c2CCC[C@@]32CCCc3sc(N)c(C#N)c32)n1)[C@@H]1CCCN1C [II-193]
- IC50 (LOVO cells): 12 nM
- IC50 ([1]; 72 h): 2 nM

SMILES: C[C@H](Oc1cc(-n2ccc(C(=O)N[C@@H]3CCOC3)n2)nc(-c2noc3c2CCC[C@@]32CCCc3sc(N)c(C#N)c32)n1)[C@@H]1CCCN1C [II-192]
- IC50 (LOVO cells; Homo sapiens): 32 nM
- IC50 ([1]; Mus musculus, BaF3, 72 h): 2 nM

SMILES: CO[C@H]1CCN(C)[C@@H]1[C@H](C)Oc1cc(N2CCNC3(CC3)C2)nc(-c2noc3c2CCC[C@@]32CCCc3sc(N)c(C#N)c32)n1 [II-184]
- IC50 (LOVO cells; Homo sapiens): 325 nM
- IC50 ([1]; Mus musculus, BaF3, 72 h): 98 nM

SMILES: C[C@H](Oc1cc(-n2ccc(C(=O)N(C)C3COC3)n2)nc(-c2noc3c2CCC[C@@]32CCCc3sc(N)c(C#N)c32)n1)[C@@H]1CCCN1C [II-194]
- IC50 (LOVO cells; Homo sapiens): 13 nM
- IC50 ([1]; Mus musculus, BaF3, 72 h): 4 nM

SMILES: CO[C@H]1CCN(C)[C@@H]1[C@H](C)Oc1cc(-n2ccc(C(=O)N[C@H]3CCOC3)n2)nc(-c2noc3c2CCC[C@@]32CCCc3sc(N)c(C#N)c32)n1 [II-198]
- IC50 (LOVO cells; Homo sapiens): 25 nM
- IC50 ([1]; Mus musculus, BaF3, 72 h): 1 nM

SMILES: C[C@H](Oc1cc(-n2ccc(-c3cn([C@@H]4CCOC4)nn3)n2)nc(-c2noc3c2CCC[C@@]32CCCc3sc(N)c(C#N)c32)n1)[C@@H]1CCCN1C [II-211]
- IC50 (LOVO cells; Homo sapiens): 40 nM
- IC50 ([1]; Mus musculus, BaF3, 72 h): 6 nM

SMILES: C[C@H](Oc1cc(-c2cn(C)nn2)nc(-c2onc3c2CCC[C@@]32CCCc3sc(N)c(C#N)c32)n1)[C@@H]1CCCN1C [I-16]
- IC50 ([1]; Mus musculus, BaF3, 72 h): 21 nM

SMILES: C[C@H](Oc1nc(-c2noc3c2CCC[C@@]32CCCc3sc(N)c(C#N)c32)nc(N2C[C@H](C)NC3(CC3)C2)c1F)[C@@H]1C[C@@H](F)CN1C [II-157]
- IC50 (LOVO cells; Homo sapiens): 136 nM
- IC50 ([1]; Mus musculus, BaF3, 72 h): 244 nM

SMILES: C[C@H](Oc1cc(-n2ccc(-c3cn(CC4(C)COC4)nn3)n2)nc(-c2noc3c2CCC[C@@]32CCCc3sc(N)c(C#N)c32)n1)[C@@H]1CCCN1C [II-213]
- IC50 (LOVO cells; Homo sapiens): 117 nM
- IC50 ([1]; Mus musculus, BaF3, 72 h): 11 nM

SMILES: C[C@H](Oc1cc(-n2cc3ccn([C@@H](C)c4ccccn4)c(=O)c3n2)nc(-c2noc3c2CCC[C@@]32CCCc3sc(N)c(C#N)c32)n1)[C@@H]1CCCN1C [II-205]
- IC50 (LOVO cells; Homo sapiens): 22 nM
- IC50 ([1]; Mus musculus, BaF3, 72 h): 19 nM

SMILES: C[C@H](Oc1nc(-c2noc3c2CCC[C@@]32CCCc3sc(N)c(C#N)c32)nc(N2CCNC3(CC3)C2)c1Cl)[C@@H]1C[C@@H](F)CN1C [II-156]
- IC50 (LOVO cells; Homo sapiens): 226 nM
- IC50 ([1]; Mus musculus, BaF3, 72 h): 353 nM

SMILES: CO[C@@H]1C[C@@H]([C@H](C)Oc2cc(N3CCN(C)C4(COC4)C3)nc(-c3noc4c3CCC[C@@]43CCCc4sc(N)c(C#N)c43)n2)N(C)C1 [II-153]
- IC50 (LOVO cells; Homo sapiens): 283 nM
- IC50 ([1]; Mus musculus, BaF3, 72 h): 1560 nM

SMILES: CNC1CCN(c2cc(O[C@@H](C)[C@@H]3CCCN3C)nc(-c3noc4c3CCC[C@@]43CCCc4sc(N)c(C#N)c43)n2)CC1 [II-214]
- IC50 ([1]; Mus musculus, BaF3, 72 h): 1900 nM

SMILES: C[C@H](Oc1cc(-n2cc3ccn(C4CCOCC4)c(=O)c3n2)nc(-c2noc3c2CCC[C@@]32CCCc3sc(N)c(C#N)c32)n1)[C@@H]1CCCN1C [II-206]
- IC50 (LOVO cells; Homo sapiens): 31 nM
- IC50 ([1]; Mus musculus, BaF3, 72 h): 7 nM

SMILES: C[C@H](Oc1cc(-n2cc3ccn([C@H]4CCOC4)c(=O)c3n2)nc(-c2noc3c2CCC[C@@]32CCCc3sc(N)c(C#N)c32)n1)[C@@H]1CCCN1C [II-202]
- IC50 (LOVO cells; Homo sapiens): 103 nM
- IC50 ([1]; Mus musculus, BaF3, 72 h): 18 nM

SMILES: C[C@H](Oc1cc(-n2cc3ccn(C[C@H]4CCOC4)c(=O)c3n2)nc(-c2noc3c2CCC[C@@]32CCCc3sc(N)c(C#N)c32)n1)[C@@H]1CCCN1C [II-204]
- IC50 (LOVO cells; Homo sapiens): 46 nM
- IC50 ([1]; Mus musculus, BaF3, 72 h): 11 nM

SMILES: C[C@H](Oc1cc(-n2ccc(-c3cn(C4CCOCC4)nn3)n2)nc(-c2noc3c2CCC[C@@]32CCCc3sc(N)c(C#N)c32)n1)[C@@H]1CCCN1C [II-210]
- IC50 (LOVO cells; Homo sapiens): 35 nM
- IC50 ([1]; Mus musculus, BaF3, 72 h): 2 nM

SMILES: C[C@H]1CNCCCN1c1nc(-c2onc3c2CCC[C@@]32CCCc3sc(N)c(C#N)c32)cc(C(F)(F)F)n1 [I-15]
- IC50 ([1]; Mus musculus, BaF3, 72 h): 930 nM

SMILES: C[C@@H]1CN(c2nc(-c3noc4c3CCC[C@@]43CCCc4sc(N)c(C#N)c43)nc(O[C@@H](C)[C@@H]3C[C@@H](F)CN3C)c2F)CC2(CC2)N1 [II-158]
- IC50 (LOVO cells; Homo sapiens): 84 nM
- IC50 ([1]; Mus musculus, BaF3, 72 h): 135 nM

SMILES: C[C@H](Oc1cc(-n2cc3c(n2)CN(C)C3)nc(-c2noc3c2CCC[C@@]32CCCc3sc(N)c(C#N)c32)n1)[C@@H]1CCCN1C [II-174]
- IC50 (LOVO cells; Homo sapiens): 139 nM
- IC50 ([1]; Mus musculus, BaF3, 72 h): 103 nM

SMILES: CO[C@H]1CCN(C)[C@@H]1[C@H](C)Oc1cc(N2CCN(C)C3(CC3)C2)nc(-c2noc3c2CCC[C@@]32CCCc3sc(N)c(C#N)c32)n1 [II-186]
- IC50 (LOVO cells; Homo sapiens): 357 nM
- IC50 ([1]; Mus musculus, BaF3, 72 h): 192 nM

SMILES: CO[C@H]1CCN(C)[C@@H]1[C@H](C)Oc1cc(-n2ccc(C(=O)N[C@@H]3CCOC3)n2)nc(-c2noc3c2CCC[C@@]32CCCc3sc(N)c(C#N)c32)n1 [II-197]
- IC50 (LOVO cells; Homo sapiens): 14 nM
- IC50 ([1]; Mus musculus, BaF3, 72 h): 2 nM

SMILES: CC(C)NC(=O)Cc1ccn(-c2cc(O[C@@H](C)[C@@H]3CCCN3C)nc(-c3noc4c3CCC[C@@]43CCCc4sc(N)c(C#N)c43)n2)n1 [II-182]
- IC50 (LOVO cells; Homo sapiens): 38 nM
- IC50 ([1]; Mus musculus, BaF3, 72 h): 5 nM

SMILES: COCCNC(=O)c1ccn(-c2cc(O[C@@H](C)[C@@H]3[C@@H](OC)CCN3C)nc(-c3noc4c3CCC[C@@]43CCCc4sc(N)c(C#N)c43)n2)n1 [II-200]
- IC50 (LOVO cells; Homo sapiens): 15 nM
- IC50 ([1]; Mus musculus, BaF3, 72 h): 1 nM

SMILES: COCCNC(=O)c1ccn(-c2cc(O[C@@H](C)[C@@H]3CCCN3C)nc(-c3noc4c3CCC[C@@]43CCCc4sc(N)c(C#N)c43)n2)n1 [II-195]
- IC50 (LOVO cells; Homo sapiens): 12 nM
- IC50 ([1]; Mus musculus, BaF3, 72 h): 2 nM

SMILES: C[C@H](NC(=O)c1ccn(-c2cc(O[C@@H](C)[C@@H]3CCCN3C)nc(-c3noc4c3CCC[C@@]43CCCc4sc(N)c(C#N)c43)n2)n1)c1ccccn1 [II-191]
- IC50 (LOVO cells; Homo sapiens): 13 nM
- IC50 ([1]; Mus musculus, BaF3, 72 h): 3 nM

SMILES: C[C@H](Oc1cc(-n2cc3ccn([C@@H]4CCOC4)c(=O)c3n2)nc(-c2noc3c2CCC[C@@]32CCCc3sc(N)c(C#N)c32)n1)[C@@H]1CCCN1C [II-203]
- IC50 (LOVO cells; Homo sapiens): 70 nM
- IC50 ([1]; Mus musculus, BaF3, 72 h): 6 nM

SMILES: C[C@H](Oc1nc(-c2noc3c2CCC[C@@]32CCCc3sc(N)c(C#N)c32)nc(N2CCN(C)C3(CC3)C2)c1Cl)[C@@H]1C[C@@H](F)CN1C [II-176]
- IC50 (LOVO cells; Homo sapiens): 2680 nM
- IC50 ([1]; Mus musculus, BaF3, 72 h): 1310 nM

SMILES: CCN1CCN(c2cc(O[C@@H](C)[C@@H]3C[C@@H](F)CN3C)nc(-c3noc4c3CCC[C@@]43CCCc4sc(N)c(C#N)c43)n2)CC12CC2 [II-185]
- IC50 (LOVO cells; Homo sapiens): 714 nM
- IC50 ([1]; Mus musculus, BaF3, 72 h): 305 nM

SMILES: CO[C@@H]1C[C@@H]([C@H](C)Oc2cc(N3CCN(C)C4(CC4)C3)nc(-c3noc4c3CCC[C@@]43CCCc4sc(N)c(C#N)c43)n2)N(C)C1 [II-152]
- IC50 (LOVO cells; Homo sapiens): 650 nM
- IC50 ([1]; Mus musculus, BaF3, 72 h): 1290 nM

SMILES: C[C@H](Oc1cc(-n2ccc(-c3cn([C@H]4CCOC4)nn3)n2)nc(-c2noc3c2CCC[C@@]32CCCc3sc(N)c(C#N)c32)n1)[C@@H]1CCCN1C [II-212]
- IC50 (LOVO cells; Homo sapiens): 35 nM
- IC50 ([1]; Mus musculus, BaF3, 72 h): 2 nM

SMILES: [2H]C([2H])([2H])N1C[C@H](F)C[C@H]1[C@H](C)Oc1cc(N2CCN(C([2H])([2H])[2H])C3(CC3)C2)nc(-c2noc3c2CCC[C@@]32CCCc3sc(N)c(C#N)c32)n1 [II-207]
- IC50 (LOVO cells; Homo sapiens): 310 nM
- IC50 ([1]; Mus musculus, BaF3, 72 h): 283 nM
